Measurements as given in PMC4556473 (British Journal of Pharmacology, 2015).

Key:
[1] = target: T1, WT mSlo3 (KCa5.1) channels (Mus musculus, UniProt O54982); experiment: Two-electrode voltage clamp of WT mSlo3 currents in Xenopus oocytes; type: cell-based; settings: for inhibition of WT mSlo3 current: pulses to +100 mV
T1 construct: Full-length WT, R196Q and F304Y mSlo3 K^+ channel subunits were expressed in Xenopus oocytes; expressed in transfected cells; host or cells: Xenopus laevis oocytes injected with in vitro transcribed capped mRNA (pBF vector)
T1 sequence (O54982 1-1121): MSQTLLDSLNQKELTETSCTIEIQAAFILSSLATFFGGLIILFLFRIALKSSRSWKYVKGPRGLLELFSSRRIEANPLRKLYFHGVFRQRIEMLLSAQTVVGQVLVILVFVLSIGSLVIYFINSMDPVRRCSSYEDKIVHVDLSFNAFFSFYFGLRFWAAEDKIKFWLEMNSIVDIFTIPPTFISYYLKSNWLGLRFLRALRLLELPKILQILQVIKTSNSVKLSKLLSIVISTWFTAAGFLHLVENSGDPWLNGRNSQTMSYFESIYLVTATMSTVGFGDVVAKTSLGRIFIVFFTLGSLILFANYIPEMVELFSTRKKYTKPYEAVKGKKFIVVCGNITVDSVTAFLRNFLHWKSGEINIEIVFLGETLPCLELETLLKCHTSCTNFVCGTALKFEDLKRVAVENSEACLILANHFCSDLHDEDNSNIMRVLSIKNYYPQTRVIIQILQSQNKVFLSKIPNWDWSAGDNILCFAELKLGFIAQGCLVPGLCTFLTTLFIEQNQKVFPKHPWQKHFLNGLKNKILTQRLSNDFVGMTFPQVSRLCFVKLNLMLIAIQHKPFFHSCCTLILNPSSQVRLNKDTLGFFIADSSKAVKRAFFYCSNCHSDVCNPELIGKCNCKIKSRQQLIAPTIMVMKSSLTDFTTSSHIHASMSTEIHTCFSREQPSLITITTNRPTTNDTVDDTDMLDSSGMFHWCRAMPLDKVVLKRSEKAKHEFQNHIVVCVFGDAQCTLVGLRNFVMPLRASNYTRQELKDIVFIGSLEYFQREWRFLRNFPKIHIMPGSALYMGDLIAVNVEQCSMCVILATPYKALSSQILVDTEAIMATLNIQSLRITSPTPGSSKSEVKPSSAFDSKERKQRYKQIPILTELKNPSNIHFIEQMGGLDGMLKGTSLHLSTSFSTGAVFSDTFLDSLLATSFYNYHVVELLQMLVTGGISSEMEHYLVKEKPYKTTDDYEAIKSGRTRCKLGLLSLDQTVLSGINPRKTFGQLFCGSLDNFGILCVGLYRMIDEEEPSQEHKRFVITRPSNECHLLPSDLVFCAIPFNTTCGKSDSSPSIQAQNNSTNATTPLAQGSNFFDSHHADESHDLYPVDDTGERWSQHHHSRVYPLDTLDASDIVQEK
Method: A plasmid containing the full-length mSlo3 sequence was a gift from Dr L. Salkoff (Washington University School of Medicine) and the open-reading frame was subcloned into pBF (Baukrowitz et al., [1999]), a vector optimized for in vitro mRNA synthesis and Xenopus oocyte expression. […] The […] and […] mutations were introduced by Quikchange site-directed mutagenesis (Agilent Technologies, Stockport, UK) and confirmed by automated sequencing. In vitro transcription was carried out using the mMessage mMachine SP6 kit (Ambion, Huntingdon, UK) to produce capped mRNA. Individual oocytes were obtained from humanely killed female Xenopus laevis toads (housed either at the University of Leeds, UK or from the European Xenopus Resource Centre, University of Portsmouth, UK) and were injected with 10-50 ng RNA in a 40 nL volume. […] The volume of the bath was 0.5 mL, which was perfused at a rate of approximately 1 mL·min^-1. 100 mM K^+ solution was made by an equimolar replacement of NaCl with KCl. Data were analysed with […], OriginPro 7.5 (Originlab, Northampton, MA, USA), and GraphPad Prism 6 software (GraphPad Software, San Diego, CA, USA). […] Data are presented as the mean ± SEM of n individual oocytes and statistical significance tested using Student's t-test, ANOVA (with Bonferroni post hoc comparison of means), or by Kruskal-Wallis test (with Dunn's post hoc comparison) as indicated in the Results.

F304Y mSlo3 = F304Y mSlo3 (Mus musculus, UniProt O54982, F304Y); experiment: Two-electrode voltage clamp of F304Y mSlo3 currents in Xenopus oocytes; type: cell-based; settings: +100 mV
Sequence of F304Y mSlo3 (O54982 whole entry F304Y): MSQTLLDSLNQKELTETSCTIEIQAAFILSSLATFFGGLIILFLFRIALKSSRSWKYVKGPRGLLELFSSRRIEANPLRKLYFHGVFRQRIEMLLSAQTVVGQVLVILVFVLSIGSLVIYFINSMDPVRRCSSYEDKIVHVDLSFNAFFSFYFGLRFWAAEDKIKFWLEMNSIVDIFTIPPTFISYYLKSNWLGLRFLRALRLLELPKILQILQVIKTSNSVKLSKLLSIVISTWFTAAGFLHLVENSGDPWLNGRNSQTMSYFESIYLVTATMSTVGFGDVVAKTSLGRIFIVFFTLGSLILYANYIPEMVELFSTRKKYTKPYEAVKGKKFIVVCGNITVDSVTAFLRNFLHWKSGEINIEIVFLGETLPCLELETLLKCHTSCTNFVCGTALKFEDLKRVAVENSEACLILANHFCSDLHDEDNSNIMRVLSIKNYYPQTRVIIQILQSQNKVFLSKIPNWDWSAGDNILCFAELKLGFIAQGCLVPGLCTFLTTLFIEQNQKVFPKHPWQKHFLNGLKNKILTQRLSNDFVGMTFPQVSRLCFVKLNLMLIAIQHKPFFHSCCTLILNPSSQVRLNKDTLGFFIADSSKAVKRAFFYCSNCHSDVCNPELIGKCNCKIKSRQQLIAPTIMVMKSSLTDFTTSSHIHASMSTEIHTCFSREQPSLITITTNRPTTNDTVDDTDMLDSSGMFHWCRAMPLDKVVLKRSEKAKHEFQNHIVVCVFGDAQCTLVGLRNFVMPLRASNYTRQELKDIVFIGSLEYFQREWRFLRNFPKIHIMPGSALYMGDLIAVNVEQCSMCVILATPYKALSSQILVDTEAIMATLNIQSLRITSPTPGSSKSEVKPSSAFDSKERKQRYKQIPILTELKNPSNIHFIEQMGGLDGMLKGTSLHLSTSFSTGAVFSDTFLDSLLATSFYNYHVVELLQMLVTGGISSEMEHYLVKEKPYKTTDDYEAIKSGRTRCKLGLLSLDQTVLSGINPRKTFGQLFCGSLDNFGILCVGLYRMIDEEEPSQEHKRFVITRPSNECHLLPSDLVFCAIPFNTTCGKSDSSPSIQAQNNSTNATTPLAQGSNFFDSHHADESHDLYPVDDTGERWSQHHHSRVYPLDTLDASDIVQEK
Method: A plasmid containing the full-length mSlo3 sequence was a gift from Dr L. Salkoff (Washington University School of Medicine) and the open-reading frame was subcloned into pBF (Baukrowitz et al., [1999]), a vector optimized for in vitro mRNA synthesis and Xenopus oocyte expression. […] The […] and […] mutations were introduced by Quikchange site-directed mutagenesis (Agilent Technologies, Stockport, UK) and confirmed by automated sequencing. In vitro transcription was carried out using the mMessage mMachine SP6 kit (Ambion, Huntingdon, UK) to produce capped mRNA. Individual oocytes were obtained from humanely killed female Xenopus laevis toads (housed either at the University of Leeds, UK or from the European Xenopus Resource Centre, University of Portsmouth, UK) and were injected with 10-50 ng RNA in a 40 nL volume. […] The volume of the bath was 0.5 mL, which was perfused at a rate of approximately 1 mL·min^-1. 100 mM K^+ solution was made by an equimolar replacement of NaCl with KCl. Data were analysed with […], OriginPro 7.5 (Originlab, Northampton, MA, USA), and GraphPad Prism 6 software (GraphPad Software, San Diego, CA, USA). […]

CC[N+](CC)(CC)CC.[Cl-] [TEA^+, tetraethlyammonium chloride]
inhibition of WT mSlo3 current ([1]; 20 mM): weakly inhibited

CCCCCCC[N+](CC)(CC)CCCCc1ccc(Cl)cc1 [clofilium]
inhibition of WT mSlo3 current ([1]; 50 μM): more strongly inhibited

[Ba+2].[Cl-].[Cl-] [Ba^2+, barium chloride]
inhibition of WT mSlo3 current ([1]; 2 mM, 2.5 mM extracellular K+): strongly inhibited
inhibition of WT mSlo3 current in high extracellular K+ ([1]; 2 mM, extracellular K+ raised to 100 mM): prevented
Hill slope of inhibition of WT mSlo3 currents ([1]; +100 mV): 0.88 ± 0.11
IC50 ([1]; currents evoked by voltage pulses to +100 mV, Xenopus oocytes, 2.5 mM K+ Ringer's pH 8, read-out: IC50 of inhibition of WT mSlo3 currents): 646 ± 100 µM
Hill slope of inhibition of F304Y mSlo3 currents (F304Y mSlo3): 1.05 ± 0.12
IC50 (F304Y mSlo3; Xenopus oocytes, read-out: IC50 of inhibition of F304Y mSlo3 currents): 525 ± 97 µM

COCC(=O)O[C@]1(CCN(C)CCCc2nc3ccccc3[nH]2)CCc2cc(F)ccc2[C@@H]1C(C)C [mibefridil, mibefradil]
inhibition of WT mSlo3 current ([1]; 5 μM): weakly inhibited
